Measurements: patent US7550478B2, “Tyrosine kinase inhibitors” (Merck & Co. Inc., priority 2006, dated 2009)

Biological target: T1, human c-Met (Homo sapiens, UniProt P08581)
T1 construct: Recombinant GST-tagged cytosolic domains of human c-Met; 6xHis; made in house; host or cells: Sf9 or Sf21 insect cells (baculovirus, Pharmingen vector pGcGHLT-A, B or C)
Experiment: In vitro kinase assay (homogeneous time-resolved tyrosine kinase assay, HTRF) for c-Met
Assay type: biochemical
Details: recombinant GST-tagged cytosolic domain of c-Met, 0.2 nM c-Met, 50 μM MgATP, 80 min at room temperature
From the text: Recombinant GST-tagged cytosolic domains of human c-Met and other receptor tyrosine kinases including mouse c-Met, human Ron, KDR, IGFR, EGFR, FGFR, Mer, TrkA and Tie2 are used to determine whether the compounds of the instant invention modulate the enzymatic activities of these kinases.
Soluble recombinant GST-tagged cytosolic domains of c-Met and other receptor tyrosine kinases are expressed in a baculovirus system (Pharmingen) according to a protocol recommended by the manufacturer. The c-DNA encoding each cytosolic domain is subcloned into a baculovirus expression vector (pGcGHLT-A, B or C, Pharmingen) containing an in frame 6× histidine tag and a GST tag. […] The protein concentrations of the fusion proteins are determined using Coomassie Plus Protein Assay (Pierce) with BSA as standard.
The kinase activities of c-Met and other kinases are measured using a modified version of the homogeneous time-resolved tyrosine kinase assay described by Park et al. (1999, Anal. Biochem. 269:94-104).
The procedure for determining the potency of a compound to inhibit c-Met kinase comprises the following steps: • 1. […] Read HTRF signals on a Victor reader (PerkinElmer) in HTRF mode after 60 min. • 6. IC50 is determined by fitting the observed relationship between compound concentration and HTRF signal with a 4-parameter logistic equation. […]

T1 sequence (P08581 956-1390 limits assumed): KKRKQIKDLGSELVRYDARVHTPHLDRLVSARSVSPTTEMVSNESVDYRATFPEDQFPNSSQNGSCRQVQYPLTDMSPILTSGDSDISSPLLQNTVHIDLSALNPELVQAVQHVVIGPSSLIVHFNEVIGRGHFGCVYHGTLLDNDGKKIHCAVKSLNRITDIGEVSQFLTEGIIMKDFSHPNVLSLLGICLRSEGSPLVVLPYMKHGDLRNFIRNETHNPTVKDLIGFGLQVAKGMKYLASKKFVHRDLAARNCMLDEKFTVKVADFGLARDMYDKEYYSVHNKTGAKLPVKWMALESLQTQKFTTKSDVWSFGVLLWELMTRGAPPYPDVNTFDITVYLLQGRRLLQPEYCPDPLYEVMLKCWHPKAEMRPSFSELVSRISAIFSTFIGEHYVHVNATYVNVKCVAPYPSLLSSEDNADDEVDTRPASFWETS

## O=c1c2cc(-c3ccccc3)cnc2ccc2cccc(Br)c12 [Compound 3, 6-bromo-3-phenyl-5H-benzo[4,5]cyclohepta[1,2-b]pyridin-5-one]
  IC50: ≤ 50 µM
